These results are taken from patent publication US6350737B1, “Platinum complex, its preparation and therapeutic application” (Pliva-Lachema, A.S., priority 1998, dated 2002).

For assay [1], the system named is lymfoblastic leucaemia line CEMt. Kind of assay: MTT test, human tumor line CEMt. The settings on record: read-out: Inhibition constant IC50. The format is cell-based. Here is the method:
(§1) The MTT test was chosen for screening the effectivity of the respective compounds. The test is based on reaction of a tetrazolium salt with respirating mitochondria of living cells. The resulted insoluble formazan is solubilized and its amount is determined on a microplate reader. […] Inhibition constant (IC50) represents such a concentration of a substance which causes 50% supression of growth of a cell culture. This constant has been determined from a graph of dependence of MTT value (mitochondrial activity of cells) on the concentration of tested substance. A GraphPad Prism programme was used for determination of the constant from the measured values, whereby Boltzman sigmoid was used for constructing a curve from single experimental points.
Comparation experiments were performed on lymfoblastic leucaemia line CEMt. The MTT test was used for evaluation of cytotoxic effect.
Vitality of cells was determined by a standard spectrophotometric MTT test based on reduction of 3-(4,5-dimethylthiazol-2-yl)-2,5-diphenyltetrazolium bromide by vital cells under formation of a formazane.

Assay [2] deals with Ocular melanoma VUP. Kind of assay: Cytotoxicity on ocular melanoma VUP. The format is cell-based, human. The procedure: as §1
In assay [3] the test system is lines P 815 (mastocytoma) and L 1210 (lymphocyte leucaernia line). Kind of assay: MTT test, mice tumor lines (line not stated for the carboplatin value). The format is cell-based. Here is the method: (§2) Cytostatic activity of compounds of the present invention has been tested in vitro on tumor lines. The MTT test was chosen for screening the effectivity of the respective compounds. The test is based on reaction of a tetrazolium salt with respirating mitochondria of living cells. The resulted insoluble formazan is solubilized and its amount is determined on a microplate reader. This method is being used as a standard one for evaluation of cytostatic effect of pharmaceutically active compounds (Tim Mosmann, Rapid colorimetric assay for cellular growth and survival, Application to proliferation and cytotoxicity assays, Journal of Immunological Methods, 65 (1983), 55-63). Inhibition constant (IC50) represents such a concentration of a substance which causes 50% supression of growth of a cell culture. This constant has been determined from a graph of dependence of MTT value (mitochondrial activity of cells) on the concentration of tested substance. A GraphPad Prism programme was used for determination of the constant from the measured values, whereby Boltzman sigmoid was used for constructing a curve from single experimental points. Chosen cell lines are standard lines used for routine screening of cytostatic effect of pharmacologically active compounds.
(§3) Within this example, lines P 815 (mastocytoma) and L 1210 (lymphocyte leucaernia line) were tested.

The subject of assay [4] is L 1210 (lymphocyte leucaernia line). Kind of assay: MTT test, mice tumor line L 1210. The format is cell-based. As to conditions: L-1210 line. Here is the method: as §2, §3
For assay [5], the system named is solid mammal adenocarcinoma MC 2111. Kind of assay: Antitumor activity in vivo, single i.v. dose, survival. Also on record: species or system Mice female DBA/1. The procedure:
Mice female DBA/1 of body mass 22.9-25.8 g were used in this experiment. Tumors were developed by s.c. inoculation of 0.2 ml of a tumor homogenate diluted in 1:1 volume ratio with an isotonic glucose solution. Tested compounds were applied in a form of an isotonic water solution prepared immediately before application by dissolution of corresponding lyophilised product in water for injections and further by dilution with isotonic sodium chloride solution ad hoc according to the need, in volumes of 0.1-0.4 ml per 20 g of body mass of an animal, as apparent from the following table.

The test system of assay [6] is P 815 (mastocytoma). Kind of assay: MTT test, mice tumor line P 815. The format is cell-based. As to conditions: P-815 line. Here is the method: as §2, §3

With `N.N.O=C([O-])C1(C(=O)[O-])CCC1.[Pt+2]` [Carboplatin, cis-diammine-/1,1-cyclobutanedicarboxylato/platinum(II) complex], the IC50 in assay [1] came to 30.4 µM; in assay [2] it was 95 µM; in assay [3] (line not specified, both in a free form or as a complex with cyclodextrin), 105 µM. The “activity relative to LA-9” value in assay [3] (IC50 comparison) is reported as “approximately hundred times less active”.
`N.N.[Cl][Pt][Cl]` [Cisplatin, cis-diammine-dichloroplatinum(II) complex]: the 50% inhibitory concentration (IC50) in assay [1] turned out to be 1.9 µM.
On the same count and under the same terms, under `O=C1[O][Pt]2([NH][C@@H]3CCCC[C@H]3[NH]2)[O]C1=O` [Oxaliplatin] stands 4.8 µM.
In the case of “cis-(1-adamantylamine) amminedichloroplatinum (II) [LA-9]”, the IC50 in assay [4] was found to be 1.5 µM; in assay [1], 0.36 µM; in assay [2] it was 9 µM; in assay [6], 1.1 µM. For the same molecule, in assay [5] (12 mg/kg single i.v. dose), the “Survivors (% of control)” value is on record as 410 % of control. In addition, in assay [5] (animals used in the tests), the Optimum dosage was 13 to 16 mg/kg. Further, the “sensibility in comparison with Carboplatin” value in assay [2] (IC50 comparison) is “approximately ten times higher sensibility”.
